The first assay addresses T1, BRD9 bromodomain (Flag-BRD9 P133-K239; Swiss Prot Q9H8M2) (Homo sapiens, UniProt Q9H8M2).
T1 construct: His-Flag-BRD9 (P133-K239); Swiss Prot Q9H8M2; His6 with TEV site (mgsshhhhhhenlyfq/) (N, cleaved yes); made in house
T1 sequence (Q9H8M2 133-239): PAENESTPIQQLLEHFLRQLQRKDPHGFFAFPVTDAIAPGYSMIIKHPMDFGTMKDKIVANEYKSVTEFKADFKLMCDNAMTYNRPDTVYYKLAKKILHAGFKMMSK
Nature of the assay: BRD9 bromodomain TR-FRET competition binding assay. To be noted: 3 nM Flag-BRD9, 3.75 nM biotinylated ligand, 90 minutes at room temperature. The method, then: Cleaved His tag was removed by purification. […] DMSO or 3-fold serially diluted compounds were then added to the Proxiplate followed by addition of Flag-BRD9. After a 10-minute incubation at room temperature, Eu-W1024 anti-FLAG (PerkinElmer, AD0273) was added.
For orientation: Time-resolved FRET reads energy transfer from a long-lived donor to a nearby acceptor.
As usually defined, the IC50 is the concentration at which inhibition is half-maximal. A high value points to weaker potency in that assay. Regarding `Cn1cc(-c2cccc(C(F)(F)F)c2)c2sc(C(=N)NC3CCS(=O)(=O)NC3)cc2c1=O` (centres unmarked) [Compound B1, N-(1,1-dioxo-1λ6,2-thiazinan-4-yl)-5-methyl-4-oxo-7-[3-(trifluoromethyl)phenyl]thieno[3,2-c]pyridine-2-carboximidamide], the IC50 was above 10 nM.

`COc1cc(-c2cn(C)c(=O)c3cc(-c4nc5ccncc5[nH]4)sc23)cc(OC)c1CN(C)C` [Compound B2, 7-[4-[(dimethylamino)methyl]-3,5-dimethoxyphenyl]-2-[3H-imidazo[4,5-c]pyridin-2-yl]-5-methylthieno[3,2-c]pyridin-4-one] had a concentration for half-maximal inhibition (IC50) below 10 nM.

Regarding `COc1cc(-c2cn(C)c(=O)c3cc(NC(=O)C4CCN(C)CC4)sc23)cc(OC)c1CN(C)C` [Compound B3, N-(7-[4-[(dimethylamino)methyl]-3,5-dimethoxyphenyl]-5-methyl-4-oxo-4H,5H-thieno[3,2-c]pyridin-2-yl)-1-methylpiperidine-4-carboxamide], the IC50 was above 10 nM.

Turning to `COc1cc(-c2cn(C)c(=O)c3cc(NC(=O)C4CN(C)CCO4)sc23)cc(OC)c1CN(C)C` (centres unmarked) [Compound B4, N-(7-[4-[(Dimethylamino)methyl]-3,5-dimethoxyphenyl]-5-methyl-4-oxo-4H,5H-thieno[3,2-c]pyridin-2-yl)-4-methylmorpholine-2-carboxamide Formic Acid], the concentration for half-maximal inhibition (IC50) is above 10 nM.

`COc1cc(-c2cn(C)c(=O)c3cc(C(=O)NC4CCC(=O)NC4)sc23)cc(OC)c1CN(C)C` (centres unmarked) [Compound B5, 7-[4-[(dimethylamino)methyl]-3,5-dimethoxyphenyl]-5-methyl-4-oxo-N-(6-oxopiperidin-3-yl)-4H,5H-thieno[3,2-c]pyridine-2-carboxamide] gave an IC50 below 10 nM.

For the compound `COc1cc(-c2cn(C)c(=O)c3cc(C(=O)NC4CCN(C)CC4)sc23)cc(OC)c1CN(C)C` [Compound B6, 7-[4-[(dimethylamino)methyl]-3,5-dimethoxyphenyl]-5-methyl-N-(1-methylpiperidin-4-yl)-4-oxo-4H,5H-thieno[3,2-c]pyridine-2-carboxamide], the IC50 is below 10 nM.

In turn, `COc1cc(-c2cn(C)c(=O)c3cc(C(=O)N4CCN(C)CC4)sc23)cc(OC)c1CN(C)C` [Compound B7, 7-[4-[(dimethylamino)methyl]-3,5-dimethoxyphenyl]-5-methyl-2-(4-methylpiperazine-1-carbonyl)-4H,5H-thieno[3,2-c]pyridin-4-one] showed an IC50 above 100 nM.

`COc1cc(-c2cn(C)c(=O)c3cc(C(=N)NC4CCS(=O)(=O)CC4)sc23)ccc1OCC(=O)O` [Compound B8, 2-(4-[2-[N-(1,1-dioxo-1λ6-thian-4-yl)carbamimidoyl]-5-methyl-4-oxo-4H,5H-thieno[3,2-c]pyridin-7-yl]-2-methoxyphenoxy)acetic Acid Trifluoroacetic Acid] registered an IC50 above 10 nM.

Compound `COc1ccc(-c2cn(C)c(=O)c3cc(-c4ncc[nH]4)sc23)cc1OC` [Compound B9, 7-(3,4-dimethoxyphenyl)-2-(1H-imidazol-2-yl)-5-methyl-4H,5H-thieno[3,2-c]pyridine-4-one] registered an IC50 above 10 nM.

Regarding `COc1ccc(-c2cn(C)c(=O)c3ccsc23)cc1OC` [Compound B10, 7-(3,4-dimethoxyphenyl)-5-methyl-4H,5H-thieno[3,2-c]pyridin-4-one], the IC50 is above 10 nM.

Regarding `COc1cc(-c2cn(C)c(=O)c3cc(NC(=O)C4CCN(C)CC4)sc23)cc(OC)c1CN(C)CC(=O)NCCOCCOc1cccc2c1C(=O)N(C1CCC(=O)NC1=O)C2=O` (centres unmarked) [Compound D1, N-[7-(4-[[([[2-(2-[[2-(2,6-dioxopiperidin-3-yl)-1,3-dioxoisoindol-4-yl]oxy]ethoxy)ethyl]carbamoyl]methyl)(methyl)amino]methyl]-3,5-dimethoxyphenyl)-5-methyl-4-oxothieno[3,2-c]pyridin-2-yl]-1-methylpiperidine-4-carboxamide], the half-inhibitory concentration (IC50) was above 100 nM.

In the case of `COc1cc(-c2cn(C)c(=O)c3cc(C(=N)NC4CCS(=O)(=O)CC4)sc23)ccc1OCC(=O)NCCCCCCCCNc1cccc2c1CN(C1CCC(=O)NC1=O)C2=O` (centres unmarked) [Compound D2, 2-(4-[2-[N-(1,1-dioxo-A6-thian-4-yl)carbamimidoyl]-5-methyl-4-oxo-4H,5H-thieno[3,2-c]pyridin-7-yl]-2-methoxyphenoxy)-N-(8-[[2-(2,6-dioxopiperidin-3-yl)-1-oxo-2,3-dihydro-1H-isoindol-4-yl]amino]octyl)acetamide], the IC50 is below 10 nM.

With `Cn1cc(-c2ccc(OCC(=O)NCCCCCCCCNc3cccc4c3C(=O)N(C3CCC(=O)NC3=O)C4=O)c(C(F)(F)F)c2)c2sc(C(=N)NC3CCS(=O)(=O)CC3)cc2c1=O` (centres unmarked) [Compound D3, 2-(4-[2-[N-(1,1-dioxo-1λ6-thian-4-yl)carbamimidoyl]-5-methyl-4-oxo-4H,5H-thieno[3,2-c]pyridin-7-yl]-2-(trifluoromethyl)phenoxy)-N-(8-[[2-(2,6-dioxopiperidin-3-yl)-1,3-dioxo-2,3-dihydro-1H-isoindol-4-yl]amino]octyl)acetamide], the IC50 was above 10 nM.

`COc1cc(-c2cn(C)c(=O)c3cc(NC(=O)C4CCN(C(=O)CCOCCOCCNc5cccc6c5C(=O)N(C5CCC(=O)NC5=O)C6=O)CC4)sc23)cc(OC)c1CN(C)C` (centres unmarked) [Compound D4, N-(7-[4-[(dimethylamino)methyl]-3,5-dimethoxyphenyl]-5-methyl-4-oxothieno[3,2-c]pyridin-2-yl)-1-[3-[2-(2-[[2-(2,6-dioxopiperidin-3-yl)-1,3-dioxoisoindol-4-yl]amino]ethoxy)ethoxy]propanoyl]piperidine-4-carboxamide] showed an IC50 above 10 nM.

In the next assay the target is T2, Nanoluciferase-BRD9 fusion protein (3×FLAG-NLuc-BRD9) in SYO-1 cells (Homo sapiens, UniProt Q9H8M2).
T2 construct: expressed in transfected cells; host or cells: SYO-1
T2 sequence (Q9H8M2 1-597): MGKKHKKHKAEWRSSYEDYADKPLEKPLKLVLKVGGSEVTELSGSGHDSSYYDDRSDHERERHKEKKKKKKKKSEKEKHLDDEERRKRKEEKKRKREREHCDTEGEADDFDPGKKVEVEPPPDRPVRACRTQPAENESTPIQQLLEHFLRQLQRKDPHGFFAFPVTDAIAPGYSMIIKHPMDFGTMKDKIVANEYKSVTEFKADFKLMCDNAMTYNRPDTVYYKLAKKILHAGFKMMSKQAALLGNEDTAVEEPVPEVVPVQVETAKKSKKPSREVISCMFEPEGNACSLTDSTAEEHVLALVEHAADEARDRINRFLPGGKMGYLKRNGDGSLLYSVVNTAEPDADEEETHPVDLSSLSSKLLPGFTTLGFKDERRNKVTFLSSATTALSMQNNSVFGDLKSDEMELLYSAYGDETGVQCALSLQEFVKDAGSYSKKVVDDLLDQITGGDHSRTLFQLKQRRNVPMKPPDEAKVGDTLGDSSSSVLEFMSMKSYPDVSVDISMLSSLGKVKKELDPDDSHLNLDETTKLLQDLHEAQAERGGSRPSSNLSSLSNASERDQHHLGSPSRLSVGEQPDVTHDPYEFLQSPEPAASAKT
Nature of the assay: SYO1 BRD9 NanoLuc degradation assay. In kind it is cell-based. To be noted: 6 hours treatment, 1 μM top dose; read-out: SYO1 BRD9-NanoLuc degradation IC50. Put shortly: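 Stable SYO-1 line expressing 3×FLAG-NLuc-BRD9 was seeded at 8000 cells/well, then treated next day for 6 h with 10-point 3-fold dilutions (top 1 μM final). Nano-Glo luminescence was read. % inhibition was normalised to DMSO (high control) and 1 μM reference BRD9 degrader (low control).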
Turning to `COc1cc(-c2cn(C)c(=O)c3cc(NC(=O)C4CCN(C)CC4)sc23)cc(OC)c1CN(C)CC(=O)NCCOCCOc1cccc2c1C(=O)N(C1CCC(=O)NC1=O)C2=O` (centres unmarked) [Compound D1, N-[7-(4-[[([[2-(2-[[2-(2,6-dioxopiperidin-3-yl)-1,3-dioxoisoindol-4-yl]oxy]ethoxy)ethyl]carbamoyl]methyl)(methyl)amino]methyl]-3,5-dimethoxyphenyl)-5-methyl-4-oxothieno[3,2-c]pyridin-2-yl]-1-methylpiperidine-4-carboxamide], the DC50 was above 1000 nM.

`COc1cc(-c2cn(C)c(=O)c3cc(C(=N)NC4CCS(=O)(=O)CC4)sc23)ccc1OCC(=O)NCCCCCCCCNc1cccc2c1CN(C1CCC(=O)NC1=O)C2=O` (centres unmarked) [Compound D2, 2-(4-[2-[N-(1,1-dioxo-A6-thian-4-yl)carbamimidoyl]-5-methyl-4-oxo-4H,5H-thieno[3,2-c]pyridin-7-yl]-2-methoxyphenoxy)-N-(8-[[2-(2,6-dioxopiperidin-3-yl)-1-oxo-2,3-dihydro-1H-isoindol-4-yl]amino]octyl)acetamide]: the DC50 is above 10 nM.

Take `Cn1cc(-c2ccc(OCC(=O)NCCCCCCCCNc3cccc4c3C(=O)N(C3CCC(=O)NC3=O)C4=O)c(C(F)(F)F)c2)c2sc(C(=N)NC3CCS(=O)(=O)CC3)cc2c1=O` (centres unmarked) [Compound D3, 2-(4-[2-[N-(1,1-dioxo-1λ6-thian-4-yl)carbamimidoyl]-5-methyl-4-oxo-4H,5H-thieno[3,2-c]pyridin-7-yl]-2-(trifluoromethyl)phenoxy)-N-(8-[[2-(2,6-dioxopiperidin-3-yl)-1,3-dioxo-2,3-dihydro-1H-isoindol-4-yl]amino]octyl)acetamide]: the DC50 is below 10 nM.

Turning to `COc1cc(-c2cn(C)c(=O)c3cc(NC(=O)C4CCN(C(=O)CCOCCOCCNc5cccc6c5C(=O)N(C5CCC(=O)NC5=O)C6=O)CC4)sc23)cc(OC)c1CN(C)C` (centres unmarked) [Compound D4, N-(7-[4-[(dimethylamino)methyl]-3,5-dimethoxyphenyl]-5-methyl-4-oxothieno[3,2-c]pyridin-2-yl)-1-[3-[2-(2-[[2-(2,6-dioxopiperidin-3-yl)-1,3-dioxoisoindol-4-yl]amino]ethoxy)ethoxy]propanoyl]piperidine-4-carboxamide], the DC50 was above 10 nM.

The assay is the same for the next values; noted with them: Table 6C; SYO-1 cells expressing 3×FLAG-NLuc-BRD9, 6 hours incubation, 1 μM top dose; read-out: SYO1 BRD9-NanoLuc degradation IC50.
Turning to `COc1cc(-c2cn(C)c(=O)c3ncsc23)cc(OC)c1CN1CC(Oc2ccc3c(c2)C(=O)N(C2CCC(=O)NC2=O)C3)C1` (centres unmarked) [Compound D212], the DC50 was below 10 nM.

`COc1cc(-c2cn(C)c(=O)c3cnsc23)cc(OC)c1CN1CC(Oc2ccc3c(c2)C(=O)N(C2CCC(=O)NC2=O)C3)C1` (centres unmarked) [Compound D213]: the DC50 is below 10 nM.

Regarding `COc1cc(-c2cn(C)c(=O)c3nc(C)sc23)cc(OC)c1CN1CCC2(CC1)CN(c1ccc3c(c1)C(=O)N(C1CCC(=O)NC1=O)C3)C2` (centres unmarked) [Compound D214], the DC50 was below 10 nM.

In the case of `COc1cc(-c2cn(C)c(=O)c3scnc23)cc(OC)c1CN1CCC2(CC1)CN(c1ccc3c(c1)C(=O)N(C1CCC(=O)NC1=O)C3)C2` (centres unmarked) [Compound D215], the DC50 was below 10 nM.

For `COc1cc(-c2cn(C)c(=O)c3cscc23)cc(OC)c1CN1CCC2(CC1)CN(c1ccc3c(c1)C(=O)N(C1CCC(=O)NC1=O)C3)C2` (centres unmarked) [Compound D216], the DC50 is below 10 nM.

For `COc1cc(-c2cn(C)c(=O)c3ocnc23)cc(OC)c1CN1CCC2(CC1)CN(c1ccc3c(c1)C(=O)N(C1CCC(=O)NC1=O)C3)C2` (centres unmarked) [Compound D217], the DC50 is below 10 nM.

As for `COc1cc(-c2cn(C)c(=O)c3cc(C(=O)NC4CCN(c5ccc6c(c5)C(=O)N(C5CCC(=O)NC5=O)C6)CC4(F)F)oc23)cc(OC)c1CN(C)C` (centres unmarked) [Compound D218], the DC50 is above 10 nM.

In the case of `COc1cc(OC)cc(-c2cn(C)c(=O)c3cc(C(=O)NC4CCN(c5ccc6c(c5)C(=O)N(C5CCC(=O)NC5=O)C6)CC4)oc23)c1` (centres unmarked) [Compound D219], the DC50 is below 10 nM.

Regarding `COc1cc(-c2cn(C)c(=O)c3ccsc23)cc(OC)c1CN1CCC(CN2CCC3(CC2)CC(Oc2ccc4c(c2)CN(C2CCC(=O)NC2=O)C4=O)C3)CC1` (centres unmarked) [Compound D220], the DC50 is below 10 nM.

Turning to `COc1cc(-c2cn(C)c(=O)c3cc(C(=O)NC4CCN(C(=O)c5csc(C(=O)c6c[nH]c7ccccc67)n5)CC4(F)F)sc23)cc(OC)c1CN(C)C` (centres unmarked) [DD1], the DC50 was above 1000 nM.

On to `COc1cc(-c2cn(C)c(=O)c3ccsc23)cc(OC)c1CN1CCN(C(=O)c2csc(C(=O)c3c[nH]c4ccccc34)n2)CC1` [DD2], for which the DC50 is above 1000 nM.
